Measurements: patent US20120264685A1 (priority 2009, published 2012)
Where a SMILES comes first, the peptide text is derived from it. [ ]: non-standard residue; d: D form. ξ: configuration not given here. ξαMeBip(2'-Et,4'-OMe) = CCc1cc(OC)ccc1-c1ccc(CC(C)(N)C(=O)O)cc1; ξαMePhe(2,6-F2) = CC(N)(Cc1c(F)cccc1F)C(=O)O; ξαMe(hhPhe) = CC(N)(CCCc1ccccc1)C(=O)O; ξαMePhe(2-F) = CC(N)(Cc1ccccc1F)C(=O)O; ξhhPhe = NC(CCCc1ccccc1)C(=O)O; ξαMeD = CC(N)(CC(=O)O)C(=O)O; ξαMeS = CC(N)(CO)C(=O)O

Assays:
[1] = system: RIN5F (Rat Insulinoma) cells; assay: In vitro glucose-dependent insulin secretion (RIN5F cell assay); assay type: cell-based; details: 16.7-mM glucose load, n = 3, mean ± S.D.
Experimental: RIN5F (Rat Insulinoma) cells were cultured in RPMI 1640 medium supplemented with sodium pyruvate (1 mM) HEPES and Glucose (4.5 g/L) in a humidified incubator (5% CO2), at 37° C. After trypsinization, RIN5F cells were seeded at a concentration of 0.2×10^6 cells per well, in 12 well plates. The cells were grown overnight to 80% confluence and insulin secretion experiments were performed as follows (Montrose-Rafizadeh C., et al., Mol. Cell. Endo. 1997, 130, 109.; Wang, X., et al., Endocrinology 2001, 5, 1820).
The cells were washed once with PBS solution followed by 40 min. incubation in fresh Krebs-Ringer Balanced Buffer containing NaCl (115 mmol/L), KCl (4.7 mmol/L), CaCl2 (1.28 mmol/L), MgSO4.7H2O (1.2 mmol/L), KH2PO4 (1.2 mmol/L), NaHCO3 (10 mmol/L) and HEPES (25 mmol/L), containing Glucose (1.1 mM) and B.S.A (0.5%), pH 7.4. The buffer was replaced after 40 min. and the cells were incubated (37° C.) with the test peptidomimetics, at different concentration, for 30 min., both in the presence (16.7 mM) and absence (0 mM) of glucose load. The supernatant was collected and the insulin amount was measured by ultra sensitive Rat insulin ELISA kit (Crystal Chem, IL). The protein was estimated in the supernatant using Bicinchoninic Acid kit, according to the manufacturer's protocol (Sigma Aldrich, MO). The total insulin content obtained in Pico-gram (pg) was divided with the total protein (μg) in order to normalize for differences in cell density between wells.

[2] = biological target: DPP IV enzyme (Homo sapiens, UniProt P27487); assay: Stability against DPP IV enzyme; assay type: in vitro ADME; details: 2 μM, 37° C.; for half-life: read-out: half-life (t1/2) with DPP-IV enzyme
Experimental: (§1) Different peptidomimetics (final concentration 2 μM) were incubated with either DPP IV (1:25 mU) or pooled human plasma (7.5 μL) or simulated gastric fluid (pH 1.5; composition HCl, NaCl and Pepsin) or simulated intestinal fluid (pH 7.5) or human liver microsomes, for 0, 2, 4, 6, 12 and 24 h (37° C.; 50 mM triethanolamine-HCl buffer; pH 7.8). […] Reactions were terminated by the addition of TFA/H2O ([…], 10% (v/v)). The reaction products were then applied to a Vydac C18 analytical column (4.6×250-mm) and the major degradation fragment separated from intact peptidomimetic. The column was equilibrated with TFA/H20, at a flow rate of 1 mL/min. Using 0.1% (v/v) TFA in 70% acetonitrile/H2O, the concentration of acetonitrile in the eluting solvent was raised from 0% to 28% over 10 min and from 28% to 42% over 30 min. The absorbance was monitored at 206 nm using UV detector and peaks were collected manually prior to ESI-MS analysis. Area under the curve was measured for test peptidomimetics and their metabolites and percentage degradation were calculated at each time point over a period of 24 h.

[3] = Stability in human plasma; assay type: in vitro ADME; details: 2 μM, 37° C.; for half-life: human, plasma, read-out: half-life (t1/2) in human plasma
Experimental: as §1

[4] = Stability in simulated gastric fluid; assay type: in vitro ADME; details: 2 μM, 37° C.; for % degradation in 24 h when incubated with simulated gastric fluid: pH 1.5, 24 h; for half-life: simulated gi fluid, read-out: half-life (t1/2) in simulated gastric fluid
Experimental: (§2) Reactions were terminated by the addition of TFA/H2O ([…], 10% (v/v)). […] The column was equilibrated with TFA/H20, at a flow rate of 1 mL/min. […] The absorbance was monitored at 206 nm using UV detector and peaks were collected manually prior to ESI-MS analysis.

[5] = Stability in simulated intestinal fluid; assay type: in vitro ADME; details: 2 μM, 37° C.; for % degradation in 24 h when incubated with simulated intestinal fluid: pH 7.5, 24 h; for half-life: simulated gi fluid, read-out: half-life (t1/2) in simulated intestinal fluid
Experimental: as §2

[6] = Stability in liver microsomes; assay type: in vitro ADME, human; details: 2 μM, 37° C.; for half-life: human, microsomes, read-out: half-life (t1/2) in liver microsomes
Experimental: as §2

Chain of DPP IV enzyme (P27487 whole entry, species assumed, the tested form may be a part): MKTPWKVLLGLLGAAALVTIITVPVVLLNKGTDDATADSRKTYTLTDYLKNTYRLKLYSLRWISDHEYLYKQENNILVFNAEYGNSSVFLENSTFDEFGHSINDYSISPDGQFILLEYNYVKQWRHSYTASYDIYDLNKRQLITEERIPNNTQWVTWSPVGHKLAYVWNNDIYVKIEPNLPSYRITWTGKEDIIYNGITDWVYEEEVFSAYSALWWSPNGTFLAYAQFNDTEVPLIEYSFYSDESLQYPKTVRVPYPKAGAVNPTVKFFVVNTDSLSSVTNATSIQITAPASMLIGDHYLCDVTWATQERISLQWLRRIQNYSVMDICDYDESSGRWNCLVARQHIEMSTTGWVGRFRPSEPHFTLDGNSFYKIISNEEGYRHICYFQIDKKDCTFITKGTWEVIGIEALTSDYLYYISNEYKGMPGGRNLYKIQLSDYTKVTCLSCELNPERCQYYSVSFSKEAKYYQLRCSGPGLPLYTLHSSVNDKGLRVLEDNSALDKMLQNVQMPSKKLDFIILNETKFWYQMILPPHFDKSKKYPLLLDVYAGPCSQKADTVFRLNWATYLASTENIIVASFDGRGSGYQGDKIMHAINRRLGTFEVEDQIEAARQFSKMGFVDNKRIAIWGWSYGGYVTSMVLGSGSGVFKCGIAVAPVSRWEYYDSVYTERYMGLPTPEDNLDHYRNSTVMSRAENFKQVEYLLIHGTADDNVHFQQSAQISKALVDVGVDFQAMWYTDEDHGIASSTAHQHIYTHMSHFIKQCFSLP

## CCc1cc(OC)ccc1-c1ccc(CC(C)(NC(=O)C(C)(CC(=O)O)NC(=O)[C@H](CO)NC(=O)[C@@H](NC(=O)C(C)(Cc2c(F)cccc2F)NC(=O)[C@@H](NC(=O)CNC(=O)[C@H](CCC(=O)O)NC(=O)[C@H](CO)NC(=O)[C@H](Cc2c[nH]cn2)NC(=O)[C@@H](N)C(C)C)[C@@H](C)O)[C@@H](C)O)C(=O)NC(C)(CCCc2ccccc2)C(N)=O)cc1 (stereo partly drawn) [compound 201] (H-VHSEGT[ξαMePhe(2,6-F2)]TS[ξαMeD][ξαMeBip(2'-Et,4'-OMe)][ξαMe(hhPhe)]-NH2)
[1]; 0.1 nM test compd.
  Insulin secretion: 15.4 ± 0.14 pg/µg/h
[1]; 1 nM test compd.
  Insulin secretion: 21.2 ± 0.18 pg/µg/h
[1]; 10 nM test compd.
  Insulin secretion: 35.6 ± 0.17 pg/µg/h
[2]
  % degradation in 24 h when incubated with DPP-IV enzyme: 75%
  half-life: 9 h
[3]
  % degradation in 24 h when incubated with human plasma: 77%
  half-life: 8 h
[4]; pH 1.5
  half-life (t1/2) in simulated gastric fluid: (8) h
[4]
  % degradation in 24 h when incubated with simulated gastric fluid: 14%
[5]; pH 7.5
  half-life (t1/2) in simulated intestinal fluid: (6) h
[5]
  % degradation in 24 h when incubated with simulated intestinal fluid: 45%
[6]
  % degradation in 24 h when incubated with liver microsomes: 81%
  half-life: 1 h

## CCc1cc(OC)ccc1-c1ccc(CC(C)(NC(=O)[C@H](CC(=O)O)NC(=O)[C@H](CO)NC(=O)[C@@H](NC(=O)[C@H](Cc2ccccc2)NC(=O)[C@@H](NC(=O)CNC(=O)[C@H](CCC(N)=O)NC(=O)[C@H](CO)NC(=O)[C@H](Cc2c[nH]cn2)NC(=O)[C@@H](NC(=O)[C@@H](N)C(C)C)C(C)C)[C@@H](C)O)[C@@H](C)O)C(=O)NC(CCCc2ccccc2)C(N)=O)cc1 (stereo partly drawn) [compound 205] (H-VVHSQGTFTSD[ξαMeBip(2'-Et,4'-OMe)][ξhhPhe]-NH2)
[1]; 0.1 nM test compd.
  Insulin secretion: 12.6 ± 0.25 pg/µg/h
[1]; 1 nM test compd.
  Insulin secretion: 15.3 ± 0.31 pg/µg/h
[1]; 10 nM test compd.
  Insulin secretion: 29.7 ± 0.48 pg/µg/h
[2]
  % degradation in 24 h when incubated with DPP-IV enzyme: 00%
  half-life: > 24 h
[3]
  % degradation in 24 h when incubated with human plasma: 00%
  half-life: > 24 h
[4]
  % degradation in 24 h when incubated with simulated gastric fluid: 43%
[4]; pH 1.5
  half-life: 4 h
[5]
  % degradation in 24 h when incubated with simulated intestinal fluid: 00%
[5]; pH 7.5
  half-life: > 24 h
[6]
  % degradation in 24 h when incubated with liver microsomes: 84%
  half-life: 2 h

## CCc1cc(OC)ccc1-c1ccc(CC(C)(NC(=O)[C@H](CC(=O)O)NC(=O)C(C)(CO)NC(=O)[C@@H](NC(=O)C(C)(Cc2ccccc2F)NC(=O)[C@@H](NC(=O)CNC(=O)[C@H](CCC(N)=O)NC(=O)[C@H](CO)NC(=O)[C@H](Cc2c[nH]cn2)NC(=O)[C@@H](N)C(C)C)[C@@H](C)O)[C@@H](C)O)C(=O)NC(C)(CCCc2ccccc2)C(N)=O)cc1 (stereo partly drawn) [compound 165] (H-VHSQGT[ξαMePhe(2-F)]T[ξαMeS]D[ξαMeBip(2'-Et,4'-OMe)][ξαMe(hhPhe)]-NH2)
[1]; 0.1 nM test compd.
  Insulin secretion: 12.1 ± 0.42 pg/µg/h
[1]; 1 nM test compd.
  Insulin secretion: 14.6 ± 0.41 pg/µg/h
[1]; 10 nM test compd.
  Insulin secretion: 27.8 ± 0.46 pg/µg/h
[2]
  % degradation in 24 h when incubated with DPP-IV enzyme: 72%
[3]
  half-life (t1/2) in human plasma: (9) h
  % degradation in 24 h when incubated with human plasma: 70%
[4]
  % degradation in 24 h when incubated with simulated gastric fluid: 100%
[4]; pH 1.5
  half-life: 0.5 h
[5]
  % degradation in 24 h when incubated with simulated intestinal fluid: 100%
[5]; pH 7.5
  half-life: 0.5 h
[6]
  % degradation in 24 h when incubated with liver microsomes: 100%
  half-life: 0.5 h

## CCc1cc(OC)ccc1-c1ccc(CC(C)(NC(=O)[C@H](CC(=O)O)NC(=O)C(C)(CO)NC(=O)[C@@H](NC(=O)C(C)(Cc2c(F)cccc2F)NC(=O)[C@@H](NC(=O)CNC(=O)[C@H](CCC(N)=O)NC(=O)[C@H](C)NC(=O)[C@H](Cc2c[nH]cn2)NC(=O)[C@@H](N)C(C)C)[C@@H](C)O)[C@@H](C)O)C(=O)NC(CCCc2ccccc2)C(N)=O)cc1 (stereo partly drawn) [compound 50] (H-VHAQGT[ξαMePhe(2,6-F2)]T[ξαMeS]D[ξαMeBip(2'-Et,4'-OMe)][ξhhPhe]-NH2)
[1]; 0.1 nM test compd.
  Insulin secretion: 12.9 ± 0.14 pg/µg/h
[1]; 1 nM test compd.
  Insulin secretion: 15.8 ± 0.13 pg/µg/h
[1]; 10 nM test compd.
  Insulin secretion: 29.9 ± 0.15 pg/µg/h
[2]
  % degradation in 24 h when incubated with DPP-IV enzyme: 75%
[3]
  half-life (t1/2) in human plasma: (9) h
  % degradation in 24 h when incubated with human plasma: 77%
[4]
  % degradation in 24 h when incubated with simulated gastric fluid: 100%
[4]; pH 1.5
  half-life: 0.5 h
[5]
  % degradation in 24 h when incubated with simulated intestinal fluid: 100%
[5]; pH 7.5
  half-life: 0.5 h
[6]
  % degradation in 24 h when incubated with liver microsomes: 100%
  half-life: 0.5 h

## CCc1cc(OC)ccc1-c1ccc(CC(C)(NC(=O)C(C)(CC(=O)O)NC(=O)[C@H](CO)NC(=O)[C@@H](NC(=O)[C@H](Cc2ccccc2)NC(=O)[C@@H](NC(=O)CNC(=O)[C@H](CCC(=O)O)NC(=O)[C@H](C)NC(=O)[C@H](Cc2c[nH]cn2)NC(=O)[C@@H](N)C(C)C)[C@@H](C)O)[C@@H](C)O)C(=O)NC(CCCc2ccccc2)C(N)=O)cc1 (stereo partly drawn) [compound 62] (H-VHAEGTFTS[ξαMeD][ξαMeBip(2'-Et,4'-OMe)][ξhhPhe]-NH2)
[1]; 0.1 nM test compd.
  Insulin secretion: 16.6 ± 0.41 pg/µg/h
[1]; 1 nM test compd.
  Insulin secretion: 22.9 ± 0.32 pg/µg/h
[1]; 10 nM test compd.
  Insulin secretion: 36.7 ± 0.11 pg/µg/h
[2]
  % degradation in 24 h when incubated with DPP-IV enzyme: 00%
  half-life: > 24 h
[3]
  % degradation in 24 h when incubated with human plasma: 00%
  half-life: > 24 h
[4]
  % degradation in 24 h when incubated with simulated gastric fluid: 00%
[4]; pH 1.5
  half-life: > 24 h
[5]
  % degradation in 24 h when incubated with simulated intestinal fluid: 00%
[5]; pH 7.5
  half-life: > 24 h
[6]
  half-life (t1/2) in liver microsomes: (5) h
  % degradation in 24 h when incubated with liver microsomes: 35%
